# Laboratory results from ChEMBL document CHEMBL1130662, “Preparation of meta-amidino-N,N-disubstituted anilines as potent inhibitors of coagulation factor Xa” (Bioorg Med Chem Lett, 1998).
# Tests used:
# [1] = target: Trypsin (Homo sapiens, UniProt P07477+P07478+P35030); experiment: Inhibition of serine protease trypsin enzyme.; format: protein assay, Oryctolagus cuniculus
# [2] = target: T1, Coagulation factor X (Oryctolagus cuniculus, UniProt O19045); experiment: Inhibition of serine protease factor Xa enzyme.
# T1 sequence (O19045 whole entry): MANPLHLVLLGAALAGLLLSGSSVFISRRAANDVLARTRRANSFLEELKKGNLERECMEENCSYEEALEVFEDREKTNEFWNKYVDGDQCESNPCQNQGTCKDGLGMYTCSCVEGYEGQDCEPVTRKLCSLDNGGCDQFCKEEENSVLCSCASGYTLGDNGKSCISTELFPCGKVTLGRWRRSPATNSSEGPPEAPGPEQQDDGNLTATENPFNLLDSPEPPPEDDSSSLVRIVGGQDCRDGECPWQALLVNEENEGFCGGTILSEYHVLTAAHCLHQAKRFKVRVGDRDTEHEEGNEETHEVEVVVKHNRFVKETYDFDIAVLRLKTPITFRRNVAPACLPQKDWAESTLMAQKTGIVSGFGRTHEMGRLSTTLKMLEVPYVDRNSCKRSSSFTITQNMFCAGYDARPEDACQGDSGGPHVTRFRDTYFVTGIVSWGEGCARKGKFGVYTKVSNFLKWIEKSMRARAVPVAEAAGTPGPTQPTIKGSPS
# [3] = target: Prothrombin (Homo sapiens, UniProt P00734); experiment: Inhibition of serine protease thrombin enzyme.
# [4] = target: T2, Coagulation factor VII (Homo sapiens, UniProt P08709); experiment: Compound was tested for the inhibition of serine protease factor VIIa enzyme.; parameters: species or system Oryctolagus cuniculus
# T2 sequence (P08709 whole entry): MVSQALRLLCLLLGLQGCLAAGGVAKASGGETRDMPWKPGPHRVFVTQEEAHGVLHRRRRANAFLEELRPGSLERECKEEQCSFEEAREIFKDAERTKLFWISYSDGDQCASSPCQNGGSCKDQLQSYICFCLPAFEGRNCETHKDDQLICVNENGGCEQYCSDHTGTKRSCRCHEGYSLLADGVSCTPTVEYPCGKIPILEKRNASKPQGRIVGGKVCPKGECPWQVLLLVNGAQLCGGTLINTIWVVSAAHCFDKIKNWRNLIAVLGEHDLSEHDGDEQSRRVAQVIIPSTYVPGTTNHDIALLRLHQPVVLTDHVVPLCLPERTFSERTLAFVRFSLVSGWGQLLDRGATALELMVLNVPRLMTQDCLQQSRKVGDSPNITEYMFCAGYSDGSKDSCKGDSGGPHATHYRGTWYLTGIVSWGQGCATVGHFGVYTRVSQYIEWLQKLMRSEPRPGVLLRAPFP
# [5] = Compound was tested for the inhibition of serine protease complement factor I enzyme.; parameters: species or system Oryctolagus cuniculus
# [6] = target: Tissue-type plasminogen activator (Homo sapiens, UniProt P00750); experiment: Compound was tested for the inhibition of serine protease tissue plasminogen activator enzyme.; parameters: species or system Oryctolagus cuniculus
# [7] = target: Plasminogen (Homo sapiens, UniProt P00747); experiment: Compound was tested for the inhibition of serine protease plasmin enzyme.; parameters: species or system Oryctolagus cuniculus
# [8] = target: T1, Coagulation factor X; experiment: Compound was tested for the inhibition of serine protease factor Xa enzyme.
# Sequence of Tissue-type plasminogen activator (P00750 whole entry): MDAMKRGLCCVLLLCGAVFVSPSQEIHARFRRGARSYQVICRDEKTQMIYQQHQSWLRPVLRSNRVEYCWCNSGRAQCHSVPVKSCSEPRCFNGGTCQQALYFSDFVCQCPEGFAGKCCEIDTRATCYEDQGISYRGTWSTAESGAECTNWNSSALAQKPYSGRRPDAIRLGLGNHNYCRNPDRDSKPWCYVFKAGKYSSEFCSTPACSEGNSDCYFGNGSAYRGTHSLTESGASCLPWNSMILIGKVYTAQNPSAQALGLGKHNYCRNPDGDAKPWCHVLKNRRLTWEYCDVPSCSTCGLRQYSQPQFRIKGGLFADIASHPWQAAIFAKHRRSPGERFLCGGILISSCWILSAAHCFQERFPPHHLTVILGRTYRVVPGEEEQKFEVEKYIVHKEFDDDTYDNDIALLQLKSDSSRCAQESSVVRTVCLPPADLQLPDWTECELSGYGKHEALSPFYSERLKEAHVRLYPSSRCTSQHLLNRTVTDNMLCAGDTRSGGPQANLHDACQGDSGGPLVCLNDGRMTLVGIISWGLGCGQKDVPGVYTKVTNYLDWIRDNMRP
# Sequence of Plasminogen (P00747 97-580 limits assumed): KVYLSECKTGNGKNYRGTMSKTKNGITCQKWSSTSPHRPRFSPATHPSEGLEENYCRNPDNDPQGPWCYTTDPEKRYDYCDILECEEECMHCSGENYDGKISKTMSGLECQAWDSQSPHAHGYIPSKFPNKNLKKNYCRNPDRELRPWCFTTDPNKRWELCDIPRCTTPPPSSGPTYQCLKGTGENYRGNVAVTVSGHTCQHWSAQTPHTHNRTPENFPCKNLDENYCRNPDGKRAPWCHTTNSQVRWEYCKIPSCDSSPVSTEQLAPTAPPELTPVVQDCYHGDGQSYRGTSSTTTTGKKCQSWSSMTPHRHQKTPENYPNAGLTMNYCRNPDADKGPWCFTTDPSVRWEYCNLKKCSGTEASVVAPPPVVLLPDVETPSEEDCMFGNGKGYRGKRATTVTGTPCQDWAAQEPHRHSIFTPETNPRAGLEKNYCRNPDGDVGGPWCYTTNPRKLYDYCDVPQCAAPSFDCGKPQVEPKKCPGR
# Sequence of Plasminogen (P00747 581-810 limits assumed): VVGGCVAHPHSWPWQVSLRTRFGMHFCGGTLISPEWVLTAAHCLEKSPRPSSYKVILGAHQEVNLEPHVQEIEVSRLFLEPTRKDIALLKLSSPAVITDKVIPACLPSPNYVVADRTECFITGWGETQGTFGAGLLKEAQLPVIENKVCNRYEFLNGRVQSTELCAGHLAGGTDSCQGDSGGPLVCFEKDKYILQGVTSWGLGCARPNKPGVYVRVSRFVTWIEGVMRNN
SMILES,Ki [1] [µM],Ki [2] [µM],Ki [3] [µM],further results
COC(=O)CN(CCc1ccc(-c2ccccc2S(N)(=O)=O)cc1)c1cccc(C(=N)N)c1.O=C(O)C(F)(F)F,0.056,0.01,0.4,–
N=C(N)c1cccc(N(CCO)CCCc2ccc(-c3ccccc3S(N)(=O)=O)cc2)c1.O=C(O)C(F)(F)F,0.71,0.017,1.8,–
CC(=O)CN(CCCc1ccc(-c2ccccc2S(N)(=O)=O)cc1)c1cccc(C(=N)N)c1.O=C(O)C(F)(F)F,0.36,0.016,0.9,–
COC(=O)CN(CCCOc1ccc(-c2ccccc2S(N)(=O)=O)cc1)c1cccc(C(=N)N)c1.O=C(O)C(F)(F)F,0.077,0.0067,0.6,–
N=C(N)c1cccc(N(CCCc2ccc(-c3ccccc3S(N)(=O)=O)cc2)CC(=O)O)c1.O=C(O)C(F)(F)F,0.47,0.012,1.4,–
COC(=O)CN(CCCc1ccc(-c2ccccc2S(N)(=O)=O)cc1)c1cccc(C(=N)N)c1.O=C(O)C(F)(F)F,0.039,0.0013,0.2,Ki [4]: 4.2 µM; IC50 [5]: 10 µM; Ki [6]: 33 µM; Ki [7]: 0.3 µM
COC(=O)CC1(C(=O)Nc2ccc(-c3ccccc3S(N)(=O)=O)cc2)CC(c2cccc(C(=N)N)c2)=NO1 (stereo not given),–,0.0063,–,–
CC(C)OC(=O)CN(CCCc1ccc(-c2ccccc2S(N)(=O)=O)cc1)c1cccc(C(=N)N)c1.O=C(O)C(F)(F)F,0.074,0.0075,0.5,–
COC(=O)CC(CCc1ccc(C(=N)N)cc1)c1cccc(C(=N)N)c1 (stereo not given),–,0.034,–,–
COC(=O)CN(CCOc1ccc(-c2ccccc2S(N)(=O)=O)cc1)c1cccc(C(=N)N)c1.O=C(O)C(F)(F)F,0.019,0.00053,0.2,–
N=C(N)c1cccc(N(CCCc2ccc(-c3ccccc3S(N)(=O)=O)cc2)CCOc2ccccc2)c1,–,0.016,0.3,–
CC(C)OC(=O)CN(CCOc1ccc(-c2ccccc2S(N)(=O)=O)cc1)c1cccc(C(=N)N)c1.O=C(O)C(F)(F)F,0.052,0.0021,0.3,–
N=C(N)c1cccc(NS(=O)(=O)CCc2ccc(-c3ccccc3S(N)(=O)=O)cc2)c1.O=C(O)C(F)(F)F,1.4,0.051,17,–
COCCN(CCCc1ccc(-c2ccccc2S(N)(=O)=O)cc1)c1cccc(C(=N)N)c1.O=C(O)C(F)(F)F,0.33,0.011,0.9,–
N=C(N)c1cccc(NCCCc2ccc(-c3ccccc3S(N)(=O)=O)cc2)c1.O=C(O)C(F)(F)F,0.85,0.083,6.1,–
COC(=O)CC1(C(=O)Nc2ccc(C(=N)N)cc2)CC(c2cccc(C(=N)N)c2)=NO1 (stereo not given),–,0.094,–,–
CC(C)OC(=O)CN(c1cccc(C(=N)N)c1)S(=O)(=O)CCc1ccc(-c2ccccc2S(N)(=O)=O)cc1.O=C(O)C(F)(F)F,0.22,0.037,15,–
N=C(N)c1cccc(N(CCCc2ccc(-c3ccccc3S(N)(=O)=O)cc2)CC(N)=O)c1.O=C(O)C(F)(F)F,0.82,0.019,3.5,–
COC(=O)CN(c1cccc(C(=N)N)c1)S(=O)(=O)CCc1ccc(-c2ccccc2S(N)(=O)=O)cc1.O=C(O)C(F)(F)F,0.18,0.021,9,–
CC(=N)N1CC[C@H](Oc2ccc([C@H](Cc3ccc4ccc(C(=N)N)cc4c3)C(=O)O)cc2)C1 [DX-9065A],–,–,–,IC50 [8]: 0.041 µM
